Source: ChEMBL document CHEMBL3244212, “Relationship of molecular structure to in vivo scintigraphic distribution of carbon-11-labeled compounds. 4. Carbon-11-labeled mandelonitriles, Mandelic acids, and their esters” (J Med Chem, 1978)

What was measured:
Format in all cases: ADME, organism-based, Canis lupus familiaris
[1] = Biodistribution in iv dosed dog ventral abdomen measured after 30 mins by scintigraphic analysis; conditions: in vivo, 0.5 h
[2] = Biodistribution in iv dosed dog left lateral head/neck measured after 35 mins by scintigraphic analysis; conditions: in vivo
Canis familiaris [3] = experiment: Biodistribution in iv dosed dog left lateral whole body measured after 4 mins by scintigraphic analysis; conditions: in vivo
[4] = Biodistribution in iv dosed dog left lateral thorax measured after 27 mins by scintigraphic analysis; conditions: in vivo, 0.45 h
Liver = experiment: Biodistribution in iv dosed dog left lateral liver measured after 18 to 80 mins by scintigraphic analysis; conditions: in vivo
[5] = Biodistribution in iv dosed dog left lateral heart measured after 18 to 80 mins by scintigraphic analysis; conditions: in vivo
[6] = Biodistribution in iv dosed dog blood measured after 3 mins by scintigraphic analysis; conditions: in vivo, 0.05 h
[7] = Biodistribution in iv dosed dog urinary bladder measured after 21 to 51 mins by scintigraphic analysis; conditions: in vivo
Nucleic Acid [8] = experiment: Ratio of drug level in temporal muscle to stomach in iv dosed dog measured after 40 mins; conditions: in vivo
Nucleic Acid [9] = experiment: Ratio of drug level in temporal muscle to pancreas in iv dosed dog measured after 40 mins; conditions: in vivo
Nucleic Acid [10] = experiment: Ratio of drug level in temporal muscle to liver in iv dosed dog measured after 34 mins; conditions: in vivo
Nucleic Acid [11] = experiment: Ratio of drug level in temporal muscle to pancreas in iv dosed dog measured after 34 mins; conditions: in vivo
Nucleic Acid [12] = experiment: Ratio of drug level in temporal muscle to cerebrospinal fluid in iv dosed dog measured after 34 mins; conditions: in vivo
Nucleic Acid [13] = experiment: Ratio of drug level in temporal muscle to kidney in iv dosed dog measured after 34 mins; conditions: in vivo
Nucleic Acid [14] = experiment: Ratio of drug level in temporal muscle to mesenteric nodes in iv dosed dog measured after 40 mins; conditions: in vivo
Nucleic Acid [15] = experiment: Ratio of drug level in temporal muscle to lung in iv dosed dog measured after 34 mins; conditions: in vivo
[16] = Ratio of drug level in temporal muscle to bile in iv dosed dog measured after 34 mins; conditions: in vivo
Nucleic Acid [17] = experiment: Ratio of drug level in temporal muscle to heart in iv dosed dog measured after 34 mins; conditions: in vivo
Nucleic Acid [18] = experiment: Ratio of drug level in temporal muscle to brain in iv dosed dog measured after 40 mins; conditions: in vivo
Nucleic Acid [19] = experiment: Ratio of drug level in temporal muscle to mesenteric fat in iv dosed dog measured after 40 mins; conditions: in vivo
Nucleic Acid [20] = experiment: Ratio of drug level in temporal muscle to spleen in iv dosed dog measured after 34 mins; conditions: in vivo
Nucleic Acid [21] = experiment: Ratio of drug level in temporal muscle to brain in iv dosed dog measured after 34 mins; conditions: in vivo
[22] = Ratio of drug level in temporal muscle to urine in iv dosed dog measured after 40 mins; conditions: in vivo
Nucleic Acid [23] = experiment: Ratio of drug level in temporal muscle to lung in iv dosed dog measured after 40 mins; conditions: in vivo
[24] = Ratio of drug level in temporal muscle to urine in iv dosed dog measured after 34 mins; conditions: in vivo
[25] = Ratio of drug level in temporal muscle to blood in iv dosed dog measured after 34 mins
Nucleic Acid [26] = experiment: Ratio of drug level in temporal muscle to liver in iv dosed dog measured after 40 mins; conditions: in vivo
Nucleic Acid [27] = experiment: Ratio of drug level in temporal muscle to kidney in iv dosed dog measured after 40 mins; conditions: in vivo
[28] = Ratio of drug level in temporal muscle to bile in iv dosed dog measured after 40 mins; conditions: in vivo
Nucleic Acid [29] = experiment: Ratio of drug level in temporal muscle to adrenal in iv dosed dog measured after 40 mins; conditions: in vivo
Nucleic Acid [30] = experiment: Ratio of drug level in temporal muscle to heart in iv dosed dog measured after 40 mins; conditions: in vivo
Nucleic Acid [31] = experiment: Ratio of drug level in temporal muscle to stomach in iv dosed dog measured after 34 mins; conditions: in vivo
Nucleic Acid [32] = experiment: Ratio of drug level in temporal muscle to spleen in iv dosed dog measured after 40 mins; conditions: in vivo
Canis familiaris [33] = experiment: Biodistribution in iv dosed dog lung after 3 mins by scintigraphic analysis; conditions: in vivo, 0.05 h

N#[11C]C(O)c1ccc(O)c(O)c1 (configuration not stated)
Drug uptake [1]: Active | Drug uptake [2]: Active | Drug uptake (Canis familiaris [3]): Active | Drug uptake [4]: Active

COc1ccc(C(O)[11C]#N)cc1 (configuration not stated)
Drug uptake (Liver): Active | Drug uptake [5]: Active | Drug uptake [6]: Active

Cc1cccc(C(O)[11C](=O)O)c1 (configuration not stated)
Drug uptake [7]: Active | Drug uptake (Canis familiaris [3]): Active

O=[11C](O)C(O)c1ccc(Cl)cc1 (configuration not stated)
Drug uptake [7]: Active | Drug uptake (Canis familiaris [3]): Active

O=[11C](O)C(O)c1ccccc1Cl (configuration not stated)
Ratio (Nucleic Acid [8]): 1.17 | Ratio (Nucleic Acid [9]): 1.18 | Drug uptake [7]: Active | Ratio (Nucleic Acid [10]): 1.38 | Ratio (Nucleic Acid [11]): 4.54 | Ratio (Nucleic Acid [12]): 2 | Ratio (Nucleic Acid [13]): 4.46 | Ratio (Nucleic Acid [14]): 2.28 | Ratio (Nucleic Acid [15]): 1.08 | Ratio [16]: 1.23 | Ratio (Nucleic Acid [17]): 1.15 | Ratio (Nucleic Acid [18]): 0.16 | Ratio (Nucleic Acid [19]): 0.47 | Ratio (Nucleic Acid [20]): 1.08 | Ratio (Nucleic Acid [21]): 0.23 | Ratio [22]: 295 | Drug uptake (Canis familiaris [3]): Active | Ratio (Nucleic Acid [23]): 1.6 | Ratio [24]: 36.77 | Kp at 34 min [25]: 13.8 | Ratio (Nucleic Acid [26]): 1.79 | Ratio (Nucleic Acid [27]): 6.26 | Ratio [28]: 0.85 | Ratio (Nucleic Acid [29]): 3.73 | Ratio (Nucleic Acid [30]): 1.06 | Ratio (Nucleic Acid [31]): 1.35 | Ratio (Nucleic Acid [32]): 1.46

O=[11C](O)C(O)c1ccccc1 (configuration not stated)
Drug uptake [7]: Active | Drug uptake (Canis familiaris [3]): Active

CCO[11C](=O)C(O)c1ccccc1 (configuration not stated)
Drug uptake (Canis familiaris [33]): Active

O=[11C](OCc1ccccc1)C(O)c1ccccc1 (configuration not stated)
Drug uptake (Canis familiaris [33]): Active
